# Test system: thromboxane analog U46619 induced PAH in minipigs
# Assay: Haemodynamics (PAP, BP) in the anesthetized thromboxane challenged PAH minipig after inhaled (nebulized) application (C-2.1)
# Format: in vivo, Göttingen minipig
# Settings: 10 μg/kg nominal dose, inhaled, n = 3
# Description: Experiments were carried out in anesthetized Göttingen minipigs, anesthetized rats and conscious, telemetrically instrumented dogs. Acute pulmonary hypertension was induced for example by infusion of a thromboxane A2 analogon, by acute hypoxia treatment or hypoxia treatment over a number of weeks and/or by administration of monocrotaline. Test substances were applied via nebulization using the Nebutec® or Aeroneb® Pro nebulizer system, and/or by means of powder and/or solution applicators for experimental intratracheal administration (Liquid MicroSprayer®, Dry Powder Insufflator™, MicroSprayer®, Penn-Century Inc., Wyndmoor, PA, USA) or after solid nebulization inserted into the inspiration arm of the ventilation. Compounds were employed as solids or solutions depending on the molecular structure and the technical possibility depending on the experiment. The haemodynamic signals were recorded and evaluated by means of pressure transducers/amplifiers (Combitransducer B. Braun, Melsungen, Germany or CardioMEMS Inc., Atlanta, GA, USA) and Ponemah® or CardioMems® as data aquisition software. After long-term experiments (for example monocrotaline rat), it is also possible to carry out a histological evaluation.
# Healthy Gottingen Minipigs® Ellegaard (Ellegaard, Denmark) of both sexes and having a weight of 2-6 kg were used. The animals were sedated by i.m. administration of about 25 mg/kg ketamine and about 10 mg/kg azaperone. Anaesthesia was initiated by i.v. administration of about 2 mg/kg ketamine and about 0.3 mg/kg midazolam. Maintenance of anaesthesia was by i.v. administration of about 7.5-30 mg/kg/h ketamine and about 1-4 mg/kg/h midazolam (rate of infusion 1-4 ml/kg/h) and about 150 μg/kg/h pancuronium bromide (for example Pancuronium-Actavis). After intubation, the animals were ventilated by the ventilator at a constant respiratory volume (10-12 ml/kg, 35 breaths/min; Avea®, Viasys Healthcare, USA, or Engstrom Carestation, GE Healthcare, Freiburg, Germany) such that an end-tidal CO2 concentration of about 5% was achieved. Ventilation was performed with room air, enriched with about 40% oxygen (normoxia). For the measurement of the haemodynamic parameters such as pulmonary arterial pressure (PAP), blood pressure (BP) and heart rate (HR), catheters were inserted into the carotid artery to measure the blood pressure, and a Swan-Ganz® catheter was introduced in a flow-directed manner via the jugular vein into the pulmonary artery. The haemodynamic signals were recorded and evaluated by means of pressure transducers (Combitransducer, B. Braun, Melsungen, Germany)/amplifiers and Ponemah® as data aquisition software.
# After the instruments have been placed into the animals, continuous infusion of a thromboxane A2 analog was initiated to increase the pulmonary arterial pressure. […] D0400, or Cayman Chemical Company, cat. no. 16440), dissolved in physiological saline, were infused to achieve an increase of the mean pulmonary arterial pressure to values of over 25 mmHg. 30 minutes after the start of the infusion, a plateau was reached, and the experiment was started.
# The test substances were administered as i.v. infusion or by inhalation. For the preparation of the solution for inhalation, the following procedure was adopted: For an animal having a weight of 4 kg, to prepare the stock solution (300 μg/kg), 1.2 mg of the test compound were weighed out and dissolved in a total volume of 3 ml (1% DMSO, 99% 0.2% strength citric acid solution, 1 N aqueous sodium hydroxide solution to adjust the pH to 8). The solution was then diluted to the concentration employed using 0.2% strength citric acid which had been adjusted to pH 8 beforehand with aqueous sodium hydroxide solution. In each test, 3 ml of the solution of test compound per 4 kg animal were nebulized in the inhalation arm of the respiratory circuit using the Aeroneb® Pro nebulizer system. The mean nebulization time was about 7 min from the start of the nebulization.
compound,measurement,setting,value
CC#CCC(C)[C@H](O)/C=C/[C@@H]1[C@H]2C/C(=C/CCCC(=O)O)C[C@H]2C[C@H]1O (stereo partly drawn) [Ventavis ®],"PAP % changes vs prevalue, mean",time 0 min,0%
same,"PAP % changes vs prevalue, mean",time 10 min,−30.3%
same,"PAP % changes vs prevalue, mean",time 20 min,−20.7%
same,"PAP % changes vs prevalue, mean",time 30 min,−6.9%
same,"PAP % changes vs prevalue, mean",time 40 min,1.7%
same,"PAP % changes vs prevalue, mean",time 50 min,4.9%

# From patent US12138256B2, “Treatment of cardiopulmonary disorders” (Bayer Aktiengesellschaft, priority 2021, dated 2024)
